Laboratory results reported in US6420383B1, “Thiepino[3,2-b]dihydropyridines and related compositions and methods” (Ortho-McNeil Pharmaceutical, Inc., priority 2000, dated 2002).

Target: T1, calcium channel (3H-nitrendipine binding, heart membranes) (Oryctolagus cuniculus, UniProt P15381)
T1 construct: from tissue; host or cells: rabbit heart membrane preparation
Test: Assay for inhibition of nitrendipine binding (calcium channel antagonist activity)
Details: 3H-nitrendipine 0.05-0.50 nM, rabbit heart membranes, 90 minutes at 4° C.
Description: Female, New Zealand white rabbits (1-2 kg) are sacrificed by cervical dislocation, and the heart is immediately removed, cleaned and chopped into small pieces. The tissue is homogenized in 5×times volume of 0.05M Hepes buffer, pH 7.4. The homogenate is centrifuged at 4000 g for 10 minutes, and the supernatant is re-centrifuged at 42,000×g for 90 minutes. The resulting membrane pellet is re-suspended (0.7 ml/g weight) in 0.05M Hepes, pH 7.4 and stored at […] until used. Each tube of the binding assay contains ^3H-nitrendipine (0.05-0.50 nM), buffer, membranes (0.10 ml), and test compound in a total volume of 1.0 ml. After 90 minutes at 4° C., the bound nitrendipine is separated from the unbound by filtration on Whatman GF/C filters. After rinsing, the filters are dried and counted in a liquid scintillation counter.
Non-specific binding of ^3H-nitrendipine (that amount bound in the presence of excess unlabelled nitrendipine) is subtracted from the total bound to obtain specifically bound radiolabeled nitrendipine. The amount of specifically bound nitrendipine in the presence of a test compound is compared to that amount bound in the absence of a compound. A percent displacement (or inhibition) can then be calculated.

T1 sequence (P15381 whole entry, other chains not shown): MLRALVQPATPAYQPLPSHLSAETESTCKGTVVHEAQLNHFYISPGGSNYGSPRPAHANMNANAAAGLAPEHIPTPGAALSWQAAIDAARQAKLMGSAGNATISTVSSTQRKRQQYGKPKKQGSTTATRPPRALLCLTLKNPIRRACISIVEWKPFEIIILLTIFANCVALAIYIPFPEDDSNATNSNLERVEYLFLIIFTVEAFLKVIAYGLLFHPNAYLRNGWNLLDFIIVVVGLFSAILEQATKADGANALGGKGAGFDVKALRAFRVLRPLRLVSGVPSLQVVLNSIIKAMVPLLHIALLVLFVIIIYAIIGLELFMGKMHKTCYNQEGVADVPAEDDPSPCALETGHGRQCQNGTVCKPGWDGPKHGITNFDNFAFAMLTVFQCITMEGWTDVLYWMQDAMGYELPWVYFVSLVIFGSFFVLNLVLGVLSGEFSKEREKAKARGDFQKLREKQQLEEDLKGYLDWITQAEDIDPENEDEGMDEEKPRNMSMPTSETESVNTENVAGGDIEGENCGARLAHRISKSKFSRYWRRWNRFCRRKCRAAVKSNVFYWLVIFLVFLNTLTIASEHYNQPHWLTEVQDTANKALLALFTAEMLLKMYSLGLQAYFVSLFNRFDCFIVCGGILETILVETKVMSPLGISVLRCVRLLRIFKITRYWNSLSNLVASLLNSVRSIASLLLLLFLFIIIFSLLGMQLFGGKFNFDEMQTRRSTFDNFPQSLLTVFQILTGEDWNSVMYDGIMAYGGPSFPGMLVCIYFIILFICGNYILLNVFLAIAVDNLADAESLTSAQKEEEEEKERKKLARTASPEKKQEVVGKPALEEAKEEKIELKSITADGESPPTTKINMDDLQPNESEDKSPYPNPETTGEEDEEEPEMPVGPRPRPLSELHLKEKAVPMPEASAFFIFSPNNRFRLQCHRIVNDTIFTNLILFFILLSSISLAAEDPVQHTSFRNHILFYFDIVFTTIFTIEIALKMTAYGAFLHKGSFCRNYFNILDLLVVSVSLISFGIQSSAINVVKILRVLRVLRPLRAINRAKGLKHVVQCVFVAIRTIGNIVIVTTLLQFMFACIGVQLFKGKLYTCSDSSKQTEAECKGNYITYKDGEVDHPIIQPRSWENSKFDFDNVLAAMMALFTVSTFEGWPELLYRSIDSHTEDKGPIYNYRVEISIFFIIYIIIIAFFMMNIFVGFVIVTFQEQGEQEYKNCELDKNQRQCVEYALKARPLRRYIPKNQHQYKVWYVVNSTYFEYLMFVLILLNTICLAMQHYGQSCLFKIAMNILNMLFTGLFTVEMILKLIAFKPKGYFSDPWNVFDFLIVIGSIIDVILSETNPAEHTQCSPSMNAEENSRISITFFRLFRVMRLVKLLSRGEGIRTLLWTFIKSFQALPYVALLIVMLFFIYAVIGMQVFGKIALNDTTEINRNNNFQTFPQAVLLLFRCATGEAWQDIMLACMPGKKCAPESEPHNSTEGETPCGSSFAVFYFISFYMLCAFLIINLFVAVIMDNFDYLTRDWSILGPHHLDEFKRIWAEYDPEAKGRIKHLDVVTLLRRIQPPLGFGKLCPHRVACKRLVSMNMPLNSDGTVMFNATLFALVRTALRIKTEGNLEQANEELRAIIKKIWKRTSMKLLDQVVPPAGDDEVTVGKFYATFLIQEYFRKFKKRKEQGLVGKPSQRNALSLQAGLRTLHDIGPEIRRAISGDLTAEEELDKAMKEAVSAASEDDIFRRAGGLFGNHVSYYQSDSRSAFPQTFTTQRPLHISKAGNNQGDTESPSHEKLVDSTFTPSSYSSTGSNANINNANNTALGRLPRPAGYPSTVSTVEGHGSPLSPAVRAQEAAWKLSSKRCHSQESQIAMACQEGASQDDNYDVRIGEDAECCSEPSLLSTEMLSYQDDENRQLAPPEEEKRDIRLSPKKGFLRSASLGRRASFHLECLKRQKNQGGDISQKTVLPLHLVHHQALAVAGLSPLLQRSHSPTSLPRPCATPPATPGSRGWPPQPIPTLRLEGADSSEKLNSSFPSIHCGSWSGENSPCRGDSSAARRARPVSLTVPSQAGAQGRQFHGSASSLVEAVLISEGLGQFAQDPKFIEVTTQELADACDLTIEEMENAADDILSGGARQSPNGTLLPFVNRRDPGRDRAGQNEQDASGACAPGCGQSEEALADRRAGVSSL
T1 sequence (P13806 27-960 partner limits assumed, other chains not shown): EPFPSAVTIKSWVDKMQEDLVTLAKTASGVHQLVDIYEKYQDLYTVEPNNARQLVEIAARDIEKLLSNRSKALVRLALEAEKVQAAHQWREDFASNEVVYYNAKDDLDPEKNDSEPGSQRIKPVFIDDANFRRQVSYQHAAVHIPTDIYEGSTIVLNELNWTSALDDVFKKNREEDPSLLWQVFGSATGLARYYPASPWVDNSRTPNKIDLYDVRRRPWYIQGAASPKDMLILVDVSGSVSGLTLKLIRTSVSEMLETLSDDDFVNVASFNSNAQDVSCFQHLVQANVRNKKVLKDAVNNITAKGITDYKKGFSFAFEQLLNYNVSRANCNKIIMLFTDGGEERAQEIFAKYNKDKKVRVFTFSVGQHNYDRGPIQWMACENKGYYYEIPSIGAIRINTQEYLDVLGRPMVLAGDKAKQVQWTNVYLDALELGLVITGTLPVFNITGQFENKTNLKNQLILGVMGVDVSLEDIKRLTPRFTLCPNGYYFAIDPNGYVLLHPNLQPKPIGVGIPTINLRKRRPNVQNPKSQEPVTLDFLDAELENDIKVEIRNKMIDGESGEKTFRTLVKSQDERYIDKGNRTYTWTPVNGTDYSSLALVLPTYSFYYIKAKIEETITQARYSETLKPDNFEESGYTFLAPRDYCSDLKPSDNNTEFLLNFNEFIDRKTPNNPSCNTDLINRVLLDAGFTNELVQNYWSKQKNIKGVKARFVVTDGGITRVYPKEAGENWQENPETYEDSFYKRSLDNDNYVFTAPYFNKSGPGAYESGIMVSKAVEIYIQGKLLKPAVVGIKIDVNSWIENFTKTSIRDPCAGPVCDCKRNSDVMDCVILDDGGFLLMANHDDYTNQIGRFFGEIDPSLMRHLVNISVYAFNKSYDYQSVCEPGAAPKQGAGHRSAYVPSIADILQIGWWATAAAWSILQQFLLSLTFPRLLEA
T1 sequence (P13806 961-1106 partner limits assumed, other chains not shown): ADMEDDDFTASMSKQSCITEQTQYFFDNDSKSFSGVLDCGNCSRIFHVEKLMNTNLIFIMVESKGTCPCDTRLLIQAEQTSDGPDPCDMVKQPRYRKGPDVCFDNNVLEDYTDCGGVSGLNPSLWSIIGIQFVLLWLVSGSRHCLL

SMILES	IC50 [nM]
CCOC(=O)C1=C(c2ccccc2)NC2=C(C1c1ccc(Cl)cc1)S(=O)(=O)CCCC2 (centres unmarked) [Compound 1, Thiepino[3,2-b]pyridine-3-carboxylic acid, 4-(4-chlorophenyl)-1,4,6,7,8,9-hexahydro-2-phenyl-, ethyl ester, 5,5-dioxide]	2000
CCOC(=O)C1=C(c2ccccc2)NC2=C(C1c1cccc(Cl)c1Cl)S(=O)(=O)CCCC2 (centres unmarked) [Compound 2, Thiepino[3,2-b]pyridine-3-carboxylic acid, 4-(2,3-dichlorophenyl)-1,4,6,7,8,9-hexahydro-2-phenyl-, ethyl ester, 5,5-dioxide]	115
COC(=O)C1=C(c2ccccc2)NC2=C(C1c1cccc(Cl)c1)S(=O)(=O)CCCC2 (centres unmarked) [Compound 3, Thiepino[3,2-b]pyridine-3-carboxylic acid, 4-(3-chlorophenyl)-1,4,6,7,8,9-hexahydro-2-phenyl-, methyl ester, 5,5-dioxide]	2000
CN(CCOC(=O)C1=C(c2ccccc2)NC2=C(C1c1cccc(Cl)c1)S(=O)(=O)CCCC2)Cc1ccccc1 (centres unmarked) [Compound 4, Thiepino[3,2-b]pyridine-3-carboxylic acid, 4-(3-chlorophenyl)-1,4,6,7,8,9-hexahydro-2-phenyl-, 2-[methyl(phenylmethyl)amino]ethyl ester, 5,5-dioxide]	192
CN(CCOC(=O)C1=C(c2ccccc2)NC2=C(C1c1c(O)cccc1Cl)S(=O)(=O)CCCC2)Cc1ccccc1 (centres unmarked) [Compound 5, Thiepino[3,2-b]pyridine-3-carboxylic acid, 4-(2-chloro-6-hydroxyphenyl)-1,4,6,7,8,9-hexahydro-2-phenyl-, 2-[methyl(phenylmethyl)amino]ethyl ester, 5,5-dioxide]	2000
CN(CCOC(=O)C1=C(c2ccccc2)NC2=C(C1c1ccccc1Cl)S(=O)(=O)CCCC2)Cc1ccccc1 (centres unmarked) [Compound 6, Thiepino[3,2-b]pyridine-3-carboxylic acid, 4-(2-chlorophenyl)-1,4,6,7,8,9-hexahydro-2-phenyl-, 2-[methyl(phenylmethyl)amino]ethyl ester, 5,5-dioxide]	312
CCOC(=O)C1=C(c2ccccc2)NC2=C(C1c1c(O)cccc1Cl)S(=O)(=O)CCCC2 (centres unmarked) [Compound 7, Thiepino[3,2-b]pyridine-3-carboxylic acid, 4-(2-chloro-6-hydroxyphenyl)-1,4,6,7,8,9-hexahydro-2-phenyl-, ethyl ester, 5,5-dioxide]	2000
CCOC(=O)C1=C(c2ccccc2)NC2=C(C1c1ccccc1Cl)S(=O)(=O)CCCC2 (centres unmarked) [Compound 8, Thiepino[3,2-b]pyridine-3-carboxylic acid, 4-(2-chlorophenyl)-1,4,6,7,8,9-hexahydro-2-phenyl-, ethyl ester, 5,5-dioxide]	580
CC1=C(C(=O)OCCN(C)Cc2cccs2)C(c2c(F)cccc2Cl)C2=C(CCCCS2(=O)=O)N1 (centres unmarked) [Compound 9, Thiepino[3,2-b]pyridine-3-carboxylic acid, 4-(2-chloro-6-fluorophenyl)-1,4,6,7,8,9-hexahydro-2-methyl-, 2-[methyl(2-thienylmethyl)amino]ethyl ester, 5,5-dioxide]	29.5
CCOC(=O)C1=C(c2ccccc2)NC2=C(C1c1c(F)c(F)c(F)c(F)c1F)S(=O)(=O)CCCC2 (centres unmarked) [Compound 10, Thiepino[3,2-b]pyridine-3-carboxylic acid, 1,4,6,7,8,9-hexahydro-4-(2,3,4,5,6-pentafluorophenyl)-2-phenyl-, ethyl ester, 5,5-dioxide]	684
CCOC(=O)C1=C(c2ccccc2)NC2=C(C1c1cccc([N+](=O)[O-])c1)S(=O)(=O)CCCC2 (centres unmarked) [Compound 11, Thiepino[3,2-b]pyridine-3-carboxylic acid, 1,4,6,7,8,9-hexahydro-4-(3-nitrophenyl)-2-phenyl-, ethyl ester, 5,5-dioxide]	6950
CC1=C(C(=O)OCCN(C)Cc2cccs2)C(c2c(F)c(F)c(F)c(F)c2F)C2=C(CCCCS2(=O)=O)N1 (centres unmarked) [Compound 12, Thiepino[3,2-b]pyridine-3-carboxylic acid, 1,4,6,7,8,9-hexahydro-2-methyl-4-(2,3,4,5,6-pentafluorophenyl)-, 2-[methyl(2-thienylmethyl)amino]ethyl ester, 5,5-dioxide]	5.9

The next lines start with the values.

IC50 [nM]	SMILES
7.1	CC1=C(C(=O)OCCN(C)Cc2cccs2)C(c2cccc([N+](=O)[O-])c2)C2=C(CCCCS2(=O)=O)N1 (centres unmarked) [Compound 13, Thiepino[3,2-b]pyridine-3-carboxylic acid, 1,4,6,7,8,9-hexahydro-2-methyl-4-(3-nitrophenyl)-, 2-[methyl(2-thienylmethyl)amino]ethyl ester, 5,5-dioxide]
15	CC1=C(C(=O)OCCN(C)Cc2cccs2)C(c2ccccc2Cl)C2=C(CCCCS2(=O)=O)N1 (centres unmarked) [Compound 14, Thiepino[3,2-b]pyridine-3-carboxylic acid, 4-(2-chlorophenyl)-1,4,6,7,8,9-hexahydro-2-methyl-, 2-[methyl(2-thienylmethyl)amino]ethyl ester, 5,5-dioxide]
2500	CCOC(=O)C1=C(c2cccs2)NC2=C(C1c1ccccc1Cl)S(=O)(=O)CCCC2 (centres unmarked) [Compound 15, Thiepino[3,2-b]pyridine-3-carboxylic acid, 4-(2-chlorophenyl)-1,4,6,7,8,9-hexahydro-2-(2-thienyl)-, ethyl ester, 5,5-dioxide]
2300	CCOC(=O)C1=C(c2cccs2)NC2=C(C1c1cccc(Cl)c1)S(=O)(=O)CCCC2 (centres unmarked) [Compound 16, Thiepino[3,2-b]pyridine-3-carboxylic acid, 4-(3-chlorophenyl)-1,4,6,7,8,9-hexahydro-2-(2-thienyl)-, ethyl ester, 5,5-dioxide]
500	CN(CCOC(=O)C1=C(c2ccccc2)NC2=C(C1c1ccccc1Cl)S(=O)(=O)CCCC2)Cc1cccs1 (centres unmarked) [Compound 17, Thiepino[3,2-b]pyridine-3-carboxylic acid, 4-(2-chlorophenyl)-1,4,6,7,8,9-hexahydro-2-phenyl-, 2-[methyl(2-thienylmethyl)amino]ethyl ester, 5,5-dioxide]
26000	CN(CCOC(=O)C1=C(c2ccccc2)NC2=C(C1c1cccc([N+](=O)[O-])c1)S(=O)(=O)CCCC2)Cc1cccs1 (centres unmarked) [Compound 18, Thiepino[3,2-b]pyridine-3-carboxylic acid, 1,4,6,7,8,9-hexahydro-4-(3-nitrophenyl)-2-phenyl-, 2-[methyl(2-thienylmethyl)amino]ethyl ester, 5,5-dioxide]
1290	CN(CCOC(=O)C1=C(c2ccccc2)NC2=C(C1c1cccc(Cl)c1)S(=O)(=O)CCCC2)Cc1cccs1 (centres unmarked) [Compound 19, Thiepino[3,2-b]pyridine-3-carboxylic acid, 4-(3-chlorophenyl)-1,4,6,7,8,9-hexahydro-2-phenyl-, 2-[methyl(2-thienylmethyl)amino]ethyl ester, 5,5-dioxide]
6540	CCOC(=O)C1=C(c2cccs2)NC2=C(C1c1cccc([N+](=O)[O-])c1)S(=O)(=O)CCCC2 (centres unmarked) [Compound 20, Thiepino[3,2-b]pyridine-3-carboxylic acid, 1,4,6,7,8,9-hexahydro-4-(3-nitrophenyl)-2-(2-thienyl)-, ethyl ester, 5,5-dioxide]
2000	CCOC(=O)C1=C(c2cccnc2)NC2=C(C1c1ccccc1Cl)S(=O)(=O)CCCC2 (centres unmarked) [Compound 21, Thiepino[3,2-b]pyridine-3-carboxylic acid, 4-(2-chlorophenyl)-1,4,6,7,8,9-hexahydro-2-(3-pyridinyl)-, ethyl ester, 5,5-dioxide]
2000	CCOC(=O)C1=C(c2cccnc2)NC2=C(C1c1cccc(Cl)c1)S(=O)(=O)CCCC2 (centres unmarked) [Compound 22, Thiepino[3,2-b]pyridine-3-carboxylic acid, 4-(3-chlorophenyl)-1,4,6,7,8,9-hexahydro-2-(3-pyridinyl)-, ethyl ester, 5,5-dioxide]
2000	CCOC(=O)C1=C(c2cccnc2)NC2=C(C1c1cccc(C(F)(F)F)c1F)S(=O)(=O)CCCC2 (centres unmarked) [Compound 23, Thiepino[3,2-b]pyridine-3-carboxylic acid, 4-[2-fluoro-3-(trifluoromethyl)phenyl]-1,4,6,7,8,9-hexahydro-2-(3-pyridinyl)-, ethyl ester, 5,5-dioxide]
149	CC1=C(C(=O)OCCN(C)Cc2ccsc2)C(c2ccccc2Cl)C2=C(CCCCS2(=O)=O)N1 (centres unmarked) [Compound 24, Thiepino[3,2-b]pyridine-3-carboxylic acid, 4-(2-chlorophenyl)-1,4,6,7,8,9-hexahydro-2-methyl-, 2-[methyl(3-thienylmethyl)amino]ethyl ester, 5,5-dioxide]
815	CC1=C(C(=O)OCCN(C)Cc2ccsc2)C(c2c(O)cccc2Cl)C2=C(CCCCS2(=O)=O)N1 (centres unmarked) [Compound 25, Thiepino[3,2-b]pyridine-3-carboxylic acid, 4-(2-chloro-6-hydroxyphenyl)-1,4,6,7,8,9-hexahydro-2-methyl-, 2-[methyl(3-thienylmethyl)amino]ethyl ester, 5,5-dioxide]
51	CC1=C(C(=O)OCCN(C)Cc2ccsc2)C(c2cccc([N+](=O)[O-])c2)C2=C(CCCCS2(=O)=O)N1 (centres unmarked) [Compound 26, Thiepino[3,2-b]pyridine-3-carboxylic acid, 1,4,6,7,8,9-hexahydro-2-methyl-4-(3-nitrophenyl)-, 2-[methyl(3-thienylmethyl)amino]ethyl ester, 5,5-dioxide]
